Test results: US20230339854A1, “Negative Allosteric Modulation of GluN3-Containing N-Methyl-D-Aspartate Receptors” (Emory University, priority 2020, published 2023)
Entries after “also recorded” stand apart in the source; their conditions may differ. Like-named read-outs stand apart in the source and are kept apart here.

Legend:
Type in all cases: cell-based
[1] = target: T1, human GluN1^FA,TL/GluN3A receptors (Homo sapiens, UniProt Q8TCU5); assay: Two-electrode voltage-clamp recordings of GluN1^FA,TL/GluN3A receptors in Xenopus oocytes; settings: for % Inhibition GluN1^FATL/GluN3A: fitted maximum at saturating test compound
T1 construct: Human GluN3A (NP_597702.2) and rat GluN3B (NP_579842.2) were synthesized and subcloned into SP6 plasmids; expressed in transfected cells; host or cells: Xenopus laevis oocytes, cRNA injection (GluN1:GluN3 1:3)
T1 sequence (Q8TCU5 24-1115, other chains not shown): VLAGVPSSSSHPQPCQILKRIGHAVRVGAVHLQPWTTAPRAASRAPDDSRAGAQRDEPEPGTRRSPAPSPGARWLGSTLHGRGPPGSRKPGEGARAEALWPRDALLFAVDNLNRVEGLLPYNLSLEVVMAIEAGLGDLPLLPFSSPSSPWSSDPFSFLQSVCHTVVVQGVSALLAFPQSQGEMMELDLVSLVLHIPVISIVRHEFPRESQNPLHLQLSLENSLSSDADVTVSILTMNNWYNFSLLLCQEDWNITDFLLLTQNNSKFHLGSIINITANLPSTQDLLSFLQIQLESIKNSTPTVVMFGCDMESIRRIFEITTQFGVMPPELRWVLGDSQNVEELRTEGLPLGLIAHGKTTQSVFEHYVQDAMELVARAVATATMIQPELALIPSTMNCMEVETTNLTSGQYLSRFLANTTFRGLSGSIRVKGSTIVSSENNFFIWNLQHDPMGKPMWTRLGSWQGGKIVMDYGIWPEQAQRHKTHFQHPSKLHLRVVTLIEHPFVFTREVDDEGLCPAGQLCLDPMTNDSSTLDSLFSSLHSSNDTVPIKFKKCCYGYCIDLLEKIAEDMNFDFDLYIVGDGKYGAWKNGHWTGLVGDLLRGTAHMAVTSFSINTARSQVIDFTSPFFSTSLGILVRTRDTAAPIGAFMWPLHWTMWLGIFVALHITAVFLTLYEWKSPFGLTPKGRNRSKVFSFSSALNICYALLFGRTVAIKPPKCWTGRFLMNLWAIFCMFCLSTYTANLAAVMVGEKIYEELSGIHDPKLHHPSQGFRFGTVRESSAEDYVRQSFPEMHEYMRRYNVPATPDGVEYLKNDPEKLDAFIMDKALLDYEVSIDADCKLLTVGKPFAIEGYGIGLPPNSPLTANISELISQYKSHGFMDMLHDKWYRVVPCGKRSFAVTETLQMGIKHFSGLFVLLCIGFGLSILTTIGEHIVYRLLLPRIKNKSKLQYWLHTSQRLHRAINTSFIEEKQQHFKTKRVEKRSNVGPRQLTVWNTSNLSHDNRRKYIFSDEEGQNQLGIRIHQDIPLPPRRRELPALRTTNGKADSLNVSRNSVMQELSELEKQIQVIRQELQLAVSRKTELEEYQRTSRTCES
Outline: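 Human GluN1 with human GluN3A cRNA (1:3) in oocytes, recorded 2-5 days post-injection at 23° C, holding −40 mV, in Ba2+-containing recording solution pH 7.4. Compounds screened at 10 or 30 μM; those inhibiting >20% given concentration-response fits for IC50, Hill slope and residual inhibition.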

[2] = target: T2, rat GluN1-4a/GluN3B receptors (Rattus norvegicus, UniProt P35439+Q8VHN2); assay: Two-electrode voltage-clamp recordings of GluN1-4a/GluN3B receptors in the presence of CGP-78608 (Xenopus oocytes); settings: pH 7.4; 0.5 μM CGP-78608; read-out: EC50, (95% CI) GluN1/GluN3B + CGP
T2 construct: Human GluN3A (NP_597702.2) and rat GluN3B (NP_579842.2) were synthesized and subcloned into SP6 plasmids; expressed in transfected cells; host or cells: Xenopus laevis oocytes, cRNA injection
T2 sequence (Q8VHN2 25-1002, other chains not shown): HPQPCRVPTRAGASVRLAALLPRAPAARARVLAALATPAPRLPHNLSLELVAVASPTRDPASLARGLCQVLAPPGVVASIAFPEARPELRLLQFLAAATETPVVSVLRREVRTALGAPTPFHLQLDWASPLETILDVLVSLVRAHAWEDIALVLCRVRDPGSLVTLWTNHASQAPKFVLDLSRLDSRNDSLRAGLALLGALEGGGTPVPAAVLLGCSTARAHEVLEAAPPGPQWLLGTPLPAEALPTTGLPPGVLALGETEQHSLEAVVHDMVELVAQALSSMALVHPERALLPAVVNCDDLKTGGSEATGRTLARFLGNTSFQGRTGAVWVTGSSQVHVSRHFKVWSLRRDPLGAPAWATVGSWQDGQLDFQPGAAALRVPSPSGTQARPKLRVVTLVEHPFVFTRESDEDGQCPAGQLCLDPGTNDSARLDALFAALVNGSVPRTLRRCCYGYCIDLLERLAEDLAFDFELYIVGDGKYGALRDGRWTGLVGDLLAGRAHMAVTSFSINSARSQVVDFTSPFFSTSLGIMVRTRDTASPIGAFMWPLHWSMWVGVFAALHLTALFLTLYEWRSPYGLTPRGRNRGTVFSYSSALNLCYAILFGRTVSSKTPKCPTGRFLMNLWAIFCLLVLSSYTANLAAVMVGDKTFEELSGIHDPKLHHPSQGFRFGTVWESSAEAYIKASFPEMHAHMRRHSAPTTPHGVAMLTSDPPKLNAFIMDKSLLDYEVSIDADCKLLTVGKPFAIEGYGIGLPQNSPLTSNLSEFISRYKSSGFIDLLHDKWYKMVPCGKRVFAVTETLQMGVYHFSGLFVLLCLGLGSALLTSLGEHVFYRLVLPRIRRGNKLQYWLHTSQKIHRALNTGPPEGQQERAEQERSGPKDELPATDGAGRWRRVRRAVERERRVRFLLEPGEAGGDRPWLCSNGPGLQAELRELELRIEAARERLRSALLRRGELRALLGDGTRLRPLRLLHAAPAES
Source text: cDNA encoding human wild-type (WT) GluN1-1a (GenBank accession numbers NP_015566, hereafter GluN1) and rat GluN1-1a (NP_058706.1) were synthesized and subcloned into pGEMHE plasmid; some experiments used the rat splice variant GluN1-4a (NP_001257531.1). Human GluN3A (NP_597702.2) and rat GluN3B (NP_579842.2) were synthesized and subcloned into SP6 plasmids. For most experiments, human GluN1 was co-expressed with human GluN3A, except for mutagenesis experiments where rat GluN1 was co-expressed with human GluN3A. Rat GluN1-4a was always expressed with rat GluN3B.
Defolliculated Xenopus laevis oocytes (stage V-VI) were obtained from Ecocyte BioScience (Austin, Texas), or prepared from commercially available Xenopus ovaries (Xenopus 1, Dexter, MI) as previously described (Hansen, et al., Mol. Pharmacol., 2013). A Drummond Nanoject II (Broomall, PA) was used to inject oocytes with cRNAs encoding GluN1 and GluN3 at a 1:3 ratio in RNase-free water. The cRNA was diluted as needed to give responses with amplitudes ranging between 200-2000 nA (0.2-10 ng total cRNA). Following cRNA injection, the oocytes were stored at 15-19° C. in Barth's solution that contained (in mM) 88 NaCl, 2.4 NaHCO3, 1 KCl, 0.33 Ca(NO3)2, 0.41 CaCl2), 0.82 MgSO4, and 5 Tris-HCl (pH 7.4 with NaOH), supplemented with 1 μg/ml streptomycin (Invitrogen, Carlsbad, CA) and 100 μg/ml gentamicin (Fisher Scientific, Pittsburgh, PA). Recordings were performed 2-5 days following cRNA microinjection at room temperature (23° C.) using a two-electrode voltage-clamp amplifier (OC725, Warner Instrument, Hamilton, CT). The signal was low-pass filtered at 10-20 Hz (4-pole, −3 dB Bessel) and digitized at the Nyquist rate using PCI-6025E or USB-6212 BNC data acquisition boards (National Instruments, Austin, TX) using EasyOocyte (http://www.easyoocyte.io/). Oocytes were placed in a custom-made chamber and continuously perfused (2.5 ml/min) with oocyte recording solution containing (in mM) 90 NaCl, 1 KCl, 10 HEPES, 0.5-1.0 BaCl2, and 0.01 EDTA (pH 7.4 with NaOH). Solutions were applied by gravity, and solution exchange was controlled through a rotary valve (Hamilton, Reno, NV). Recording electrodes were filled with 0.3-3.0 M KCl, and current responses were recorded at a holding potential of −40 mV.
Response (%)=(100−minimum)/(1+([concentration]/IC50)^nH)+minimum (2) • where nH is the Hill slope, IC50 is the concentration that produces a half-maximal effect, and minimum is the degree of residual inhibition at a saturating concentration of the negative allosteric modulator.
Selected compounds were also screened in the same assay as EU1180-438 to determine their effect on GluN3B.

glycine receptors = target: T3, glycine receptors (Rattus norvegicus, UniProt P07727); assay: Glycine receptors in Xenopus oocytes (selectivity); settings: 20 μM
T3 construct: expressed in transfected cells; host or cells: Xenopus laevis oocytes; cDNA from Dr. D. Weiss
T3 sequence (P07727 29-457): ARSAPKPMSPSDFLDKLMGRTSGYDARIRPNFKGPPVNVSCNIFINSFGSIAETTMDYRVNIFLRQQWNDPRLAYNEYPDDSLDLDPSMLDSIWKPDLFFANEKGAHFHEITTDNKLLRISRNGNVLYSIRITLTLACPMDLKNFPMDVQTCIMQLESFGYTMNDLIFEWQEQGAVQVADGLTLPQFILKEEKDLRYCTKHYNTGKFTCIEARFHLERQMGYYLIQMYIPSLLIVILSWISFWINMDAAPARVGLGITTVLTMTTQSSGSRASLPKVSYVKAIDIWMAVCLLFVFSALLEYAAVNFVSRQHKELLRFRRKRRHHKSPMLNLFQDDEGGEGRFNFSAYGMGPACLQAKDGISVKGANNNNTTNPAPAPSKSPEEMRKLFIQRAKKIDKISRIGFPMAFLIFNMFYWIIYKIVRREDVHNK
Description: The numbers of oocytes recorded are in parentheses.
The cDNA was linearized by restriction enzymes (Thermo Fisher Scientific, Lithuania), and the cRNA encoding the receptor subunits was synthesized from the linear template cDNA using the mMESSAGE mMACHINE kit (Invitrogen/Thermo Fisher Scientific, Lithuania). The α1β1δγ nAChR subunits were injected at a 1:1:1:1 ratio while α4 […] nAChR subunits were injected at a 1:1 ratio. The cDNAs encoding GABA and glycine subunits were provided by Dr. D. Weiss (University of Texas Health Science Center at San Antonio). The cDNAs encoding nAChR subunits were provided by Drs. R. Papke (University of Florida) and S. Heinemann (Salk Institute). The cDNA encoding the purinergic receptor was provided by Dr. R. Hume (University of Michigan).
Responses in the presence of EU1180-438 were expressed as a percent of control calculated as the average of the responses before and after EU1180-438 exposure. […]
Defolliculated Xenopus laevis oocytes (stage V-VI) were obtained from Ecocyte BioScience (Austin, Texas), or prepared from commercially available Xenopus ovaries (Xenopus 1, Dexter, MI) as previously described (Hansen, et al., Mol. Pharmacol., 2013). […] Recording electrodes were filled with 0.3-3.0 M KCl, and current responses were recorded at a holding potential of −40 mV.

[3] = target: native GluN1/GluN3A receptors (Mus musculus, UniProt A2AIR5); assay: Whole-cell patch-clamp of glycine-activated responses in hippocampal CA1 pyramidal cells, acute brain slices; settings: 30 μM; 1 μM CGP-78608; 10 mM glycine puffs
Chain of native GluN1/GluN3A receptors (A2AIR5 27-1135, other chains not shown): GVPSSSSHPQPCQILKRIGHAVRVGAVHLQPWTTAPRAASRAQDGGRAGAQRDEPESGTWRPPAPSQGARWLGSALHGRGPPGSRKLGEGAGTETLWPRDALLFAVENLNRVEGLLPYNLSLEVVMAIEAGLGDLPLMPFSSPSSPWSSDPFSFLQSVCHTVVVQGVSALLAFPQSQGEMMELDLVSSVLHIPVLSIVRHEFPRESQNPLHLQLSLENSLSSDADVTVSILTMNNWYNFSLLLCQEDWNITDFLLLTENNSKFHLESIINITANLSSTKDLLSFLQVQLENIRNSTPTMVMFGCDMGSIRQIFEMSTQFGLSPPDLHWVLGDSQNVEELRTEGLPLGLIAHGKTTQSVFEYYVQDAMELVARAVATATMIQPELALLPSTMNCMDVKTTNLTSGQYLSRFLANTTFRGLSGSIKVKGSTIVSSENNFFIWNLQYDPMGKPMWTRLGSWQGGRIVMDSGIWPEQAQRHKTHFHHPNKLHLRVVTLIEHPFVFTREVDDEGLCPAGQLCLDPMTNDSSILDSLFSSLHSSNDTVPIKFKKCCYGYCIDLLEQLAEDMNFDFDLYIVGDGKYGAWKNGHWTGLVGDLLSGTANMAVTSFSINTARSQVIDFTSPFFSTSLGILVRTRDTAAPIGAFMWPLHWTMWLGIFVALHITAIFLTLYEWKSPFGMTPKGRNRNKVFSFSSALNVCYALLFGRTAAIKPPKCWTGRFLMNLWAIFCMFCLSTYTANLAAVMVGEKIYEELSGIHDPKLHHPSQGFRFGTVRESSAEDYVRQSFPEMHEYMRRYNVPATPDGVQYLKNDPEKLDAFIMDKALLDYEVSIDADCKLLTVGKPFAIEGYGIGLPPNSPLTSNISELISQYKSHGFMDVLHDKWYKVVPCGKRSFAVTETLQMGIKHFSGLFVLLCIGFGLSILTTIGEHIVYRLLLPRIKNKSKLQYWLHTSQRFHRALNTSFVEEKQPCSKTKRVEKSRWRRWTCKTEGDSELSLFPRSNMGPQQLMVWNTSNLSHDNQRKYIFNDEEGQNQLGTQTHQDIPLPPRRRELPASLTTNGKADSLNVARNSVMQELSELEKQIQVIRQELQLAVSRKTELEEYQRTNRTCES

- Slope ([1]; concentration-response curve, 1000 μM glycine): 1.24
- % Inhibition GluN1^FATL/GluN3A ([1]; pH 6.8): 72%^a, (n = 7)
- % Inhibition GluN1^FATL/GluN3A ([1]; pH 7.4): 82%, (n = 18)
- maximal inhibition at saturating concentrations ([1]; pH 6.8): 72%
- IC50 ([1]; pH 6.8, holding potential −40 mV, read-out: EC50, (95% CI) GluN1^FATL/GluN3A): 4.2 µM
- IC50 ([1]; pH 6.8, read-out: IC50): 4.2 µM
- inhibition at a saturating concentration ([1]; pH 7.4): 82%
- IC50 ([1]; pH 7.4, holding potential −40 mV, read-out: EC50, (95% CI) GluN1^FATL/GluN3A): 3.5 µM
- remaining activity at 10 µM ([1]; read-out: response in the presence of compound, % of control): 29 ± 4.2%
- minimum ([1]; residual response at saturating concentration, 1000 μM glycine): 18%
- IC50 ([1]; responses activated by 1000 μM glycine, pH 7.4, read-out: IC50): 3.5 µM
- EC50 [2]: 2.2 µM
- activity at glycine receptors (glycine receptors): virtually no activity
Structure (SMILES): COc1ccc(OCC(c2ccc(OC)cc2)N2Cc3ccccc3C2=O)cc1 (racemic) [EU1180-438, 2-(2-(4-methoxyphenoxy)-1-(4-methoxyphenyl)ethyl)isoindolin-1-one]
- effect of increasing glycine concentration on inhibition [1]: not altered by increasing glycine concentration
- voltage dependence of inhibition (current-voltage relationship) ([1]; 4 μM compound): no effect of holding voltage on EU1180-438 inhibition
- effect on glycine-activated responses from native GluN1/GluN3A receptors [3]: strong inhibition; also recorded: inhibited significantly
